Test results as given in US7563787B2, “Substituted pyrazole compounds” (Miikana Therapeutics, Inc., priority 2005, dated 2009).

How the values were obtained:
Assay type in all cases: biochemical
ABL1 = target: T1, ABL1 (Homo sapiens, UniProt P00519); experiment: Kinase Selectivity Assay; settings: read-out: Percent Inhibition at 1 μM; note: ATP at apparent Km or 100 µM
T1 construct: purchased Invitrogen, Carlsbad, Calif
Protocol: (§1) Compounds were assayed for inhibitory activity against a panel of different kinase enzymes at a concentration of 1 μM. Where appropriate, full-length enzymes or catalytically active fragments, with N-terminal or C-terminal His- or GST-tags, were used (Invitrogen, Carlsbad, Calif.). Test compounds were initially diluted to 100× test concentration in 100% DMSO. This 100× concentration was then diluted to a 4× working concentration in Kinase Buffer (50 mM HEPES pH 7.5, 0.01% Brij-35, 10 mM MgCl2, 1 mM EGTA) and 2.5 μL was then added to a low volume NBS, 384-well plate (Corning, Corning, N.Y.). Five μL of a 2× peptide/kinase mixture (Invitrogen, Carlsbad, Calif.), as appropriate (listed in Table 3), was then added and the reaction was then initiated by addition of 2.5 μL of a 4× working concentration of ATP in Kinase Buffer.

ABL1 G250E = target: T2, ABL1 G250E (Homo sapiens, UniProt P00519, G250E); experiment: Kinase Selectivity Assay; settings: read-out: Percent Inhibition at 1 μM; note: ATP at apparent Km or 100 µM
T2 construct: purchased Invitrogen, Carlsbad, Calif
Protocol: as §1

ABL1 T315I = target: T3, ABL1 T315I (Homo sapiens, UniProt P00519, T315I); experiment: Kinase Selectivity Assay; settings: read-out: Percent Inhibition at 1 μM; note: ATP at apparent Km or 100 µM
T3 construct: purchased Invitrogen, Carlsbad, Calif
Protocol: as §1

ABL1 Y253F = target: T4, ABL1 Y253F (Homo sapiens, UniProt P00519, Y253F); experiment: Kinase Selectivity Assay; settings: read-out: Percent Inhibition at 1 μM; note: ATP at apparent Km or 100 µM
T4 construct: purchased Invitrogen, Carlsbad, Calif
Protocol: as §1

FGFR1 = target: T5, FGFR1 (Homo sapiens, UniProt P11362); experiment: Kinase Selectivity Assay; settings: read-out: Percent Inhibition at 1 μM; note: ATP at apparent Km or 100 µM
T5 construct: purchased Invitrogen, Carlsbad, Calif
Protocol: as §1

LCK = target: T6, LCK (Homo sapiens, UniProt P06239); experiment: Kinase Selectivity Assay; settings: read-out: Percent Inhibition at 1 μM; note: ATP at apparent Km or 100 µM
T6 construct: full-length enzymes or catalytically active fragments; purchased Invitrogen
Protocol: as §1

PTK2 (FAK) = target: T7, PTK2 (FAK) (Homo sapiens, UniProt Q05397); experiment: Kinase Selectivity Assay; settings: read-out: Percent Inhibition at 1 μM; note: ATP at apparent Km or 100 µM
T7 construct: full-length enzymes or catalytically active fragments; purchased Invitrogen
Protocol: as §1

[1] = target: T8, recombinant human KDR, residues 790-end (Homo sapiens, UniProt P35968); experiment: KDR Kinase Inhibition Assay; settings: read-out: inhibition of KDR at a concentration of 1 μM
T8 construct: recombinant human KDR, residues 790-end; His6 (N); purchased Upstate USA Inc, Charlottesville, Va
Protocol: Compounds were assayed for KDR kinase inhibitory activity using N-terminal His6-tagged recombinant human KDR, residues 790-end (Upstate USA Inc, 706 Forest Street, Charlottesville, Va.). Serial dilutions of compound were assayed in a final reaction volume of 25 μL by incubating a solution of the above KDR kinase (5-10 mU), 8 mM MOPS (3-(N-morpholino) propanesulfonic acid) pH 7.0, 0.2 mM EDTA (ethylenediamine tetracetic acid), 0.33 mg/mL myelin basic protein (Upstate USA Inc, 706 Forest Street, Charlottesville, Virginia), and 10 mM magnesium acetate and [γ-^33P-ATP] (specific activity of about 500 cpm/pmol, concentration as required). The reaction was initiated by the addition of the magnesium acetate and [γ-^33P-ATP] mixture. After incubation for 40 minutes at room temperature, the reaction was stopped by the addition of 5 μL of a 3% phosphoric acid solution. A 10 μL aliquote of the reaction was then spotted onto a P30 filtermat (PerkinElmer, Wellesley, Mass.) and washed three times for five minutes in 75 mM phosphoric acid and once in methanol prior to drying and scintillation counting. Inhibition of KDR activity was determined by comparison to assays that contained no inhibitor.

SRC = SRC (Homo sapiens, UniProt P12931); experiment: Src Kinase Inhibition Assay; set-up: His (N); purchased Upstate USA Inc, Charlottesville, Va; settings: read-out: inhibition of Src at a concentration of 1 μM; 1 μM compound; 33P-ATP filter assay
Protocol: Compounds were assayed for Src kinase inhibitory activity using N-terminal His-tagged human Src (Upstate USA Inc, 706 Forest Street, Charlottesville, Va.).

T7 sequence (Q05397 whole entry, the tested form may be a part): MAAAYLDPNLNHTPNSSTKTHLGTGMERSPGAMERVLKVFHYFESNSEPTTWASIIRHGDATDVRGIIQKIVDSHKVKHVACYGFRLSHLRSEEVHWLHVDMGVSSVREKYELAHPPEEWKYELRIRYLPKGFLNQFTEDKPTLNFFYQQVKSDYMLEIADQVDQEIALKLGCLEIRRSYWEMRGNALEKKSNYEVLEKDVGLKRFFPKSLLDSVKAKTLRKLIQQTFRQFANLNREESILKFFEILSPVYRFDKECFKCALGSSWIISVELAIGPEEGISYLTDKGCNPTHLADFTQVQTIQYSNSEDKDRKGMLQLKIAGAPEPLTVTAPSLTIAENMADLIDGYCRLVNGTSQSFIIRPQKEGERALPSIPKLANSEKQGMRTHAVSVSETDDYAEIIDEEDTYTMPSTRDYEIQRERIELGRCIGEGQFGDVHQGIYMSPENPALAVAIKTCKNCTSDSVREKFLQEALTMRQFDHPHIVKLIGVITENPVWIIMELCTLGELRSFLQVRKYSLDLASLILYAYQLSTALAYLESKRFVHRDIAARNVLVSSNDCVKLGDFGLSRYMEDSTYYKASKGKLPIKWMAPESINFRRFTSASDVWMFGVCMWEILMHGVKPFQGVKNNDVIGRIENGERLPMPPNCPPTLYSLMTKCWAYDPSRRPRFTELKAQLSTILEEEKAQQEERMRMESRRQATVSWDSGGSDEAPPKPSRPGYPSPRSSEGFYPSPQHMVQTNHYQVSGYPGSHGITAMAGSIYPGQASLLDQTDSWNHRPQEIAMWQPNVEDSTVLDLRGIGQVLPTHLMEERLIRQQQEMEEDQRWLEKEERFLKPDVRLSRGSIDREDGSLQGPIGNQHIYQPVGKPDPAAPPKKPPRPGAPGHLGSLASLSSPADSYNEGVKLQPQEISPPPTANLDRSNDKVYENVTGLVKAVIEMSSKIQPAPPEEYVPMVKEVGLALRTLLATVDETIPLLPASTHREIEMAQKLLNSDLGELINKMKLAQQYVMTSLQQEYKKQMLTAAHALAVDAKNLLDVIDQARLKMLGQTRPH
Chain of SRC (P12931 whole entry): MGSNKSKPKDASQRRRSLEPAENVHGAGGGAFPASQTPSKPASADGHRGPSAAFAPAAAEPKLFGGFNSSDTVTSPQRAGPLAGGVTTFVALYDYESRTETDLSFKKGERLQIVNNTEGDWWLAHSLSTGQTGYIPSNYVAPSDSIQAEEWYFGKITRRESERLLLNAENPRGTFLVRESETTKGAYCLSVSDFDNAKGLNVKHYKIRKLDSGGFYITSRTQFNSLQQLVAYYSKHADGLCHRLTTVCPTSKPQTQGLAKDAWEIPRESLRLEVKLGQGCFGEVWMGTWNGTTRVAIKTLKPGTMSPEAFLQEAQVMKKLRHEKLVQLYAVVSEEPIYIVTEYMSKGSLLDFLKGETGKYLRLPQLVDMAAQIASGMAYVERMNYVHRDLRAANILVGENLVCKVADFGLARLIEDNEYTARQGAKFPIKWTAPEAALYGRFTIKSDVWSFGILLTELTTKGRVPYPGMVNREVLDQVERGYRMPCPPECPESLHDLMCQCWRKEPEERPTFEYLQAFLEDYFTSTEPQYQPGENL
T5 sequence (P11362 22-822): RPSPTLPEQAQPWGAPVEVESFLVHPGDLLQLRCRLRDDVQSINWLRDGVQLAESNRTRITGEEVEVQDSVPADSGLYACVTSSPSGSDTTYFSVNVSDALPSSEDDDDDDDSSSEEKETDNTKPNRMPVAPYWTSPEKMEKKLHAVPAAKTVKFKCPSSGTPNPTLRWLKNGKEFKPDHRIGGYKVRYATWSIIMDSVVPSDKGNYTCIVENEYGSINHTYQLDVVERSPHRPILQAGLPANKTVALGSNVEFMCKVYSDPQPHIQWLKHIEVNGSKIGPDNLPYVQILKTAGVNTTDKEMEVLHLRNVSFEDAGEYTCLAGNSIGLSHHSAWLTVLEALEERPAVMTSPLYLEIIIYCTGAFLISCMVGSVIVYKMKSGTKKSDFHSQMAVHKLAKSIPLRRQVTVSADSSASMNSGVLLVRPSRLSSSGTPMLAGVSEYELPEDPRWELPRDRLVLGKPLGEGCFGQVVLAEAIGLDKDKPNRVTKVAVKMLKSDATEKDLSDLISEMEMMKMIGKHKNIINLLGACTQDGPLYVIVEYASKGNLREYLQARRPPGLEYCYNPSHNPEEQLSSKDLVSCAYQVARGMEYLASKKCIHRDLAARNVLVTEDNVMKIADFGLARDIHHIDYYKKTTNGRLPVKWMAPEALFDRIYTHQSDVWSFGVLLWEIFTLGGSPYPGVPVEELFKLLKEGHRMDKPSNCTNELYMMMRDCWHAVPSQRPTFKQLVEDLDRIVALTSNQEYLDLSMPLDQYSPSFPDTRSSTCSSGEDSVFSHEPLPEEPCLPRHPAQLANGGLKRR
T8 sequence (P35968 790-1356 limits assumed): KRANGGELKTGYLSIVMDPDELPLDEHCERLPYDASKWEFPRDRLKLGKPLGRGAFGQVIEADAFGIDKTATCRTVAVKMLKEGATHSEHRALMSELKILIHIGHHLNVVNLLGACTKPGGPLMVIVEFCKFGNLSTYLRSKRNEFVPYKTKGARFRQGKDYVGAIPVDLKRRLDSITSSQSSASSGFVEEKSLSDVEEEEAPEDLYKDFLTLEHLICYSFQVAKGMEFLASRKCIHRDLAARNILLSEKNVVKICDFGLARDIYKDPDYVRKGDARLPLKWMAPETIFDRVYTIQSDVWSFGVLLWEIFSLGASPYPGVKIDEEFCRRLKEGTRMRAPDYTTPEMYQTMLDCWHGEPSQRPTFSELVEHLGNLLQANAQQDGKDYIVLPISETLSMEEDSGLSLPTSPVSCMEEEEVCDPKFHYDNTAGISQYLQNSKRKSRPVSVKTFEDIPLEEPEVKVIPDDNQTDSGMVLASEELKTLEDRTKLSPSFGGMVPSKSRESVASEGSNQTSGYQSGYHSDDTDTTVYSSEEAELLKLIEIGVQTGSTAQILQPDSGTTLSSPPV
T6 sequence (P06239 whole entry, the tested form may be a part): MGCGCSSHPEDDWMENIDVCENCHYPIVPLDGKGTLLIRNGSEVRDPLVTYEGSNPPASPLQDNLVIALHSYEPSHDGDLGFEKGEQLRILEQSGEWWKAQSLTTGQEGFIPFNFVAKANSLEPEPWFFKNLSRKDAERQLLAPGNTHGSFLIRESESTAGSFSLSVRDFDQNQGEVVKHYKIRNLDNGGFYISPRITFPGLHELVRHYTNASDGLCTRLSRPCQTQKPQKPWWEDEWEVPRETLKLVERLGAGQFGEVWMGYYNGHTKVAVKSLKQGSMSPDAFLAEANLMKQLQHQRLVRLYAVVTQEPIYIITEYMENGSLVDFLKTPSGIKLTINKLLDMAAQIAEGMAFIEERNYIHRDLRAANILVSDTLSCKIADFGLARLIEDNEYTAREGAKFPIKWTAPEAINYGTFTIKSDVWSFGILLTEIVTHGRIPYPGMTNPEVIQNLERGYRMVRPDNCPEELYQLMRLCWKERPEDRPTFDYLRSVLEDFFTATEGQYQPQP

Compound | inhibition at 1 µM (ABL1) | inhibition at 1 µM (ABL1 G250E) | inhibition at 1 µM (ABL1 T315I) | inhibition at 1 µM (ABL1 Y253F) | inhibition at 1 µM (FGFR1) | inhibition at 1 µM (LCK) | inhibition at 1 µM (PTK2 (FAK)) | inhibition at 1 µM [1] | inhibition at 1 µM (SRC)
Cc1cc(Nc2nc(/C=C/c3ccccc3)nc(N3CCN(C)CC3)c2N)[nH]n1 [Example 10, 6-(4-methylpiperazin-1-yl)-N-(3-methyl-1H-pyrazol-5-yl)-2-[(E)-2-phenylvinyl]pyrimidin-4,5-diamine] | 54% | 60% | 79% | 57% | 46% | 81% | 81% |  | 
Cc1cc(Nc2cc(N3CCN(C)CC3)nc(/C=C/c3ccccc3)n2)n[nH]1 [Example 31, 6-(4-methylpiperazin-1-yl)-N-(3-methyl-1H-pyrazol-5-yl)-2-[(E)-2-phenylvinyl]pyrimidin-4-amine] |  |  |  |  |  |  |  | ~94% | ~95%
